Values quoted from earlier work as cited in US20130122119A1, “PHYLLANTHUS AMARUS COMPOSITIONS AND METHOD OF EXTRACTING SAME” (NATREON, INC., priority 2011, published 2013).

Assays:
[1] = tested on: TNF-α release; settings: read-out: IC50 of TNF-α release inhibition
[2] = tested on: mouse skin tumors; settings: week 20, treatment prior to okadaic acid
[3] = tested on: hepatitis B surface antigen (HBsAg) secretion; settings: non-cytotoxic concentration of 200 μg/ml
[4] = tested on: hepatitis B e-antigen (HBeAg) secretion; settings: non-cytotoxic concentration of 200 μg/ml
[5] = geraniin isolated from Phyllanthus sellowianus

| Compound | IC50 [1] [µM] | average numbers of tumor per mouse ([2]; 3.8 without treatment) | percentage of tumor-bearing mice ([2]; 80.0% without treatment) [%] | inhibition of HBsAg secretion [3] | inhibition of HBeAg secretion [4] [%] | analgesic potency at the ID50 level (micromol/kg) relative to aspirin and acetaminophen [5] |
| --- | --- | --- | --- | --- | --- | --- |
| O=C(O[C@@H]1O[C@@H]2COC(=O)c3cc(O)c(O)c(O)c3-c3c(cc(O)c(O)c3O)C(=O)O[C@H]([C@H]1O)[C@@H]2O)c1cc(O)c(O)c(O)c1 [Corilagin, beta-1-O-galloyl-3,6-(R)-hexahydroxydiphenoyl-D-glucose] | 76 | – | – | – | – | – |
| (−)-epigallocatechin gallate | 26 | – | – | – | – | – |
| O=C1OC2C3COC(=O)c4cc(O)c(O)c(O)c4-c4c(cc(O)c(O)c4O)C(=O)OC2C(OC(=O)c2cc(O)c(O)c4c2C2C1=CC(=O)C(O)(O4)C2(O)O)C(OC(=O)c1cc(O)c(O)c(O)c1)O3 [Geraniin, beta-D-Glucopyranose, cyclic 2-7:4-5-(3,6-dihydro-2,9,10,11,11-pentahydroxy-3-oxo-2,6-methano-2H-1-benzoxocin-5,7-dicarboxylate) cyclic 3,6-(4,4′,5,5′,6,6′-hexahydroxy(1,1′-biphenyl)-2,2′-dicarboxylate) 1-(3,4,5-trihydroxybenzoate)] | 43 | 1.1 | 40.0 | more than 85.8% | > 63.7 | about six- to seven-fold more potent |
